No end group written: not given here.
Legend:
[1] = target: T1, 7BP protein (RXFP1 extracellular domain attached with a single TM domain) (Homo sapiens, UniProt Q9HBX9); test: Eu-H2 relaxin competition binding in HEK-7BP cells, BSA free; conditions: HEK-293T cells stably expressing 7BP, BSA excluded from buffer, mean ± SEM, n in brackets, one-site fit, read-out: HEK-7BP Binding B.S.A. Free Eu-H2 pKi (n) (converted)
T1 construct: RXFP1 extracellular domain attached with a single TM domain instead of the native 7 TM domain; single transmembrane domain replacing the native 7 TM domain (heterologous); expressed in transfected cells; host or cells: HEK-293T cells stably expressing 7BP (HEK-7BP)
T1 sequence (Q9HBX9 1-409 limits assumed): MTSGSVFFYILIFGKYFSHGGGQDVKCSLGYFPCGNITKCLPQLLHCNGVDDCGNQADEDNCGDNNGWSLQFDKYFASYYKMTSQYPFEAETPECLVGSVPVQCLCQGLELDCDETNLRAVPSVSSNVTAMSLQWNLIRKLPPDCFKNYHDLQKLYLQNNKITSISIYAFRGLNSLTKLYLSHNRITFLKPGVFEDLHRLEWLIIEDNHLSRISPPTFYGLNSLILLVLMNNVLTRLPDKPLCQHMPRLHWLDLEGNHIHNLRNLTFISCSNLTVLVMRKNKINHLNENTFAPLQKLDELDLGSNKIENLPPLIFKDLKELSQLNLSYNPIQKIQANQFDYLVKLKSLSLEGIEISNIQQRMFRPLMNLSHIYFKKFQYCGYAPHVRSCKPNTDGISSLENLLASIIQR
Method: 3.6. HEK-7BP Binding Assays
HEK-293T cells stably expressing the 7BP protein (HEK-7BP; RXFP1 extracellular domain attached with a single TM domain instead of the native 7 TM domain [30]) were plated in 96-well plates. The medium was aspirated off, and the cells were washed with phosphate-buffered saline (PBS) before competition binding assays were performed with Eu-H2 Relaxin (RXFP1 ligand), as previously described, with the only difference being that BSA was excluded from the binding assay buffer. Competition binding curves for each peptide were performed in triplicate, and each experiment was performed independently at least three times. Fluorescent measurements were carried out on a BMG POLARstar plate reader (BMG Labtech, Melbourne, Australia). Pooled data are presented as mean ± SE of specific binding and are fitted using a one-site binding curve in GraphPad Prism version 8 (GraphPad Inc., San Diego, CA, USA). Statistical analyses were conducted using a one-way analysis of variance with uncorrected Fisher’s least significant difference (LSD) post-hoc analysis in GraphPad Prism version 8.

[2] = In vitro serum stability assay; type: in vitro ADME, human; conditions: 37 °C
Method: 3.7. In Vitro Serum Stability Assay
A total of 400 µL of human serum was taken, and 200 µg peptide dissolved in 100 µL of water was added to human serum at 37 °C. A total of 80 µL of samples was removed at various time points (0 min, 30 min, 60 min, 120 min, 240 min, and 480 min), and 160 µL of acetonitrile was added to precipitate plasma proteins. The solution was then centrifuged at 12,000 rpm for 15 min at 4 °C. A total of 200 µL of supernatant was taken out and mixed with 240 µL of milli-Q water, and each sample was analyzed by RP-HPLC (2 × 80 μL injection), by measuring the area under the peak at the appropriate retention time compared to the peak area of the peptide at time zero minute (100%). Data analysis (n = 3, duplicate) was performed using Prism Version 8.0.2, a non-linear-fit one-phase decay model.

[3] = test system: heart fibrosis, lung fibrosis; conditions: rat vs. mouse; cited from earlier work
From the text: (§1) The human gene-2 relaxin peptide (H2 relaxin) was discovered as a hormone of reproduction. The actions of H2 relaxin during pregnancy are pleiotropic, including strong antifibrotic, angiogenic, vasodilatory, antiapoptotic, and anti-inflammatory effects. These effects are mediated through the activation of the G protein-coupled receptor, Relaxin Family Peptide Receptor 1 (RXFP1), the native receptor for H2 relaxin [5]. However, H2 relaxin also has a high affinity for, and potency on, the related Relaxin Family Peptide Receptor 2 (RXFP2, a cognate receptor for INSL3 [6]) ...

[4] = test system: cyclic adenosine monophosphate (cAMP); conditions: in fibroblasts; cited from earlier work
From the text: as §1

pERK pathway = conditions: in fibroblasts; cited from earlier work
From the text: as §1

[5] = test system: BJ3 human dermal myofibroblasts; test: Myofibroblast differentiation in vitro (α-SMA expression, Western blot); type: cell-based
Method: 3.8. Determination of the Effects of Lipidated (L)-B7-33 on Myofibroblast Differentiation In Vitro
To determine if the lipidation of B7-33 prolonged its ability to suppress myofibroblast differentiation in vitro, the effects of the native B7-33 peptide vs. lipidated (L)-B7-33 were compared in BJ3 cells, a human dermal fibroblast cell line. BJ3 fibroblasts were used between passages 15–18 and cultured as described before. […] BJ3 cells were plated in 12-well plates at a density of 1–1.25 × 10^5 cells per well and were then either left untreated or stimulated with transforming growth factor (TGF)-β1 (T; 2 ng/mL) alone (to promote myofibroblast differentiation) or with T + B7-33 (100 ng/mL) or T + L-B7-33 (100 ng/mL) for a 14-day period, in media that was left unchanged over this time period. The cells from duplicate wells per treatment group were isolated from plates at 3-, 5-, 7-, 10- and 14-days post-T ± peptide treatment and extracted for protein using the RIPA lysis buffer (ThermoFisher Scientific; Scoresby, Victoria, Australia). These experiments were performed six independent times.
Half the cell protein (in 10 μL of RIPA buffer) from each sample (that was fully reconstituted in 20 μL of RIPA buffer) was loaded and electrophoresed in separate mini-protean 4–15% precast gels, and analyzed by Western blotting using a primary monoclonal antibody to α-SMA (42 kDa; M0851; […]; Agilent Technologies, Santa Clara, CA, USA). The equivalent loading of protein between samples was confirmed using a rabbit monoclonal glyceraldehyde 3-phosphate dehydrogenase (GAPDH) housekeeping antibody (37 kDa; 2118; 1:1000 dilution; Cell Signaling Technology; Danvers, MA, USA). Each membrane was then subjected to appropriate anti-mouse (7076) or anti-rabbit (7074) horseradish peroxidase-conjugated secondary antibodies (both at a 1:2000 dilution; Cell Signaling Technologies), before proteins were detected using the Clarity Western ECL substrate detection kit and quantified by densitometry with a ChemiDoc MP Imaging System and Image Lab v.6.0 software (both from Bio-Rad Laboratories, Hercules, CA, USA).The density of α-SMA from each sample was corrected for GAPDH protein levels and then expressed relative to the ratio that was measured from the unstimulated control group, which was expressed as 1 in each case. Representative blots of α-SMA and GAPDH were also chosen for presentation in each case.

[6] = human serum 400 µL + 200 µg peptide in 100 µL water, samples 0-480 min, acetonitrile precipitation, RP-HPLC peak area vs time zero, one-phase decay fit, n = 3, duplicate

Row | Ki [1] | half-life at 400 µg/mL [2, 6] | in vitro half-life in serum [2, 6] | in vitro serum stability, in words ([2]; human serum, RP-HPLC, n = 3 independent experiments) | Compound | effect on fibrosis in animal models [3] | cAMP activation [4] | pERK pathway activation potency (pERK pathway) | α-SMA expression levels versus T-alone-stimulated cells, in words ([5]; peptide 100 ng/mL + T 2 ng/mL, after 5–14 days of culture) | suppression of TGF-α-induced increase in α-SMA expression ([5]; peptide 100 ng/mL co-administered with T (2 ng/mL), after 72 h of culture, 0.5% FCS, n = 6 in duplicate)
1 | > 10 µM |  |  |  | CCCCCCCCCCCCCCCC(=O)NCCCC[C@H](NC(=O)[C@H](CCC(=O)O)NC(=O)[C@H](Cc1ccc(O)cc1)NC(=O)[C@@H](N)CCC(=O)O)C(=O)N[C@@H](CCC(=O)O)C(=O)N[C@@H](Cc1ccc(O)cc1)C(=O)N[C@@H](CCC(=O)O)C(=O)NCCOCCOCCOCCOCCOCCOCCC(=O)N[C@H](C(=O)N[C@H](C(=O)N[C@@H](CCCCN)C(=O)N[C@@H](CC(C)C)C(=O)N[C@@H](CO)C(=O)NCC(=O)N[C@@H](CCCNC(=N)N)C(=O)N[C@@H](CCC(=O)O)C(=O)N[C@@H](CC(C)C)C(=O)N[C@H](C(=O)N[C@@H](CCCNC(=N)N)C(=O)N[C@@H](C)C(=O)N[C@@H](CCC(N)=O)C(=O)N[C@H](C(=O)N[C@@H](C)C(=O)N[C@H](C(=O)N[C@@H](CO)C(=O)NCC(=O)N[C@@H](CCSC)C(=O)N[C@@H](CO)C(=O)N[C@H](C(=O)N[C@@H](Cc1c[nH]c2ccccc12)C(=O)N[C@@H](CO)C(=O)N[C@@H](CCCCN)C(=O)N[C@@H](CCCNC(=N)N)C(=O)N[C@@H](CO)C(=O)N[C@@H](CC(C)C)C(N)=O)[C@@H](C)O)[C@@H](C)CC)[C@@H](C)CC)C(C)C)[C@@H](C)CC)C(C)C [Tag-PEG6-B7-33] |  |  |  |  | 
2 |  | ~6 min | 6 min | degrades within minutes | VIKLSGRELVRAQIAISGMSTWSKRSL-NH2 [Analogue B7-33] | reversed or resolved fibrosis | barely activate | potency similar to H2 relaxin | fully returned to those measured for T-alone-stimulated cells | almost fully suppressed

— paper PMC10094921, “A Lipidated Single-B-Chain Derivative of Relaxin Exhibits Improved In Vitro Serum Stability without Altering Activity” (International Journal of Molecular Sciences, 2023)
